Experimental findings from patent USRE32992E, “Peptide process for preparation thereof and use thereof” (priority 1978, dated 1989) are described below.

The test relates to reticuloendotherial system. Description: Blood stream clearance of carbon. Type of test: in vivo, Mice (DDY male 5-6 W). As for the experimental part: 1. Carbon suspension. Rotoring drawing ink (170 mg carbon/ml.) was diluted to 1/5 of the original concentration in saline containing 1% gelatin.
2. 0.1% aqueous sodium carbonate solution.
Mice (DDY male 5-6 W) were injected via the tail vein with a dose of 0.01 ml/g body weight of carbon. Blood samples were taken by means of a pointed capillary pippet calibrated to hold a 50 μl and previously washed in heparin. This was plunged into the retrooribital venous sinus at the nasal angle of the eye. The samples were removed at 3 and to 6 min.
The blood was immediately discharged into 3.0 ml. of the sodium carbonate solution. This hemolyszed the blood and allowed the quantitation of carbon. The samples were then read in a spectrophotometer at 660 nm, the log concentration being obtained from a previously determined standard curve. The clearance value K may be determined by plotting log carbon concentration against time according to the following relationship; [formula] in which T1 and T2 represent the time in min when the sample were withdrawn and C1 and C2 represent the concentrations of carbon in the blood at the time T1 and T2, respectively.
The aqueous solution of the test compound as given was administered subcutaneously to mice. Twenty four hours later, blood stream clearance of carbon was measured. K value obtained with treated mice was compared with that of control mice.

Regarding `c1ccc([C@H]2CN3CCSC3=N2)cc1` [Levamisol], the Ktreated/Kcontrol entry (dose 10 mg/mouse) is given as “death”. Take Tuftsin: the Ktreated/Kcontrol came to 1.0 (dose 125 mg/mouse) and 1.4 (dose 400 mg/mouse).
